Among the data in ChEMBL document CHEMBL4813986, “Multicomponent synthesis and anti-proliferative screening of biaryl triazole-containing cyclophanes” (Bioorg Med Chem Lett, 2021) are inhibition, IC50 and solubility values, retold here.

As usually defined, the inhibition is the change of the read-out against control, counted positive when it falls. In general, IC50 refers to the concentration at which inhibition is half-maximal.

The subject of data set [1] is PC-3. In words: Antiproliferative activity against human PC-3 cells assessed as inhibition of cell growth at 50 uM relative to control. The format is functional.
For the next data set, the system named is MCF7. The data set is described as follows: Antiproliferative activity against human MCF7 cells assessed as inhibition of cell growth at 50 uM relative to control. Type of data set: functional.
The test system of data set [2] is PC-3. In words: Antiproliferative activity against human PC-3 cells assessed as inhibition of cell growth. Type of data set: functional, cell-based.
Data set [3] in a line: Cytotoxicity against African green monkey COS7 cells assessed as inhibition of cell growth at 50 uM relative to control. Type of data set: cell-based. The note with it: chlorocebus aethiops, COS-7 cells.
In a further data set the test system is DU-145. The data set is described as follows: Antiproliferative activity against human DU-145 cells assessed as inhibition of cell growth at 50 uM relative to control. Type of data set: functional.
Data set [4] can be described thus: Aqueous solubility of the compound. The format is physicochemical. The note with it: buffer.
A further data set relates to Bel-7402. The data set is described as follows: Cytotoxicity against human Bel-7402 cells assessed as reduction in cell viability measured after 5 days by MTT assay. Type of data set: functional, cell-based.

≈ marks a conversion by molar mass, not a printed value. Calls of active or inactive are those of the source. The rule behind the calls is not given here.

`CCCCCCCCCCCCNC(=O)C1c2cccc(c2)-c2ccc(cc2)OCc2cn(nn2)CCOc2ccc(cc2)CC(=O)N1c1ccc(F)cc1` (stereo not given): the inhibition at 50 µM stood at 68.3% in the data set on PC-3 [1], 82.4% in the data set with MCF7, 35% in data set [3] and 93.1% in the data set with DU-145. Also, the IC50 with PC-3 [2] came out at 13.9 µM.

For the molecule `CCCCCCCCCCCCNC(=O)C1c2cccc(c2)-c2ccc(cc2)OCc2cn(nn2)CCCCOc2ccc(cc2)CC(=O)N1c1ccc(C(F)(F)F)cc1` (stereo not given), the inhibition at 50 µM in the data set on PC-3 [1] is 36.4%; in the data set on MCF7, 42.9%; in data set [3], 16.6%; with DU-145, 52.8%.

With `O=C(NC1CCCCC1)C1c2cccc(c2)-c2ccc(cc2)OCc2cn(nn2)CCOc2ccc(cc2)CC(=O)N1c1ccc(F)cc1` (stereo not given), the inhibition at 50 µM with PC-3 [1] is 50.3%; with MCF7, 43.2%; in data set [3] it was 43.2%; in the data set with DU-145 it was 28.4%.

Regarding `CCCCCCCCCCCCNC(=O)C1c2cccc(c2)-c2ccc(cc2)OCc2cn(nn2)CCOc2ccc(cc2)CC(=O)N1c1ccc(C(C)C)cc1` (stereo not given), the inhibition at 50 µM with PC-3 [1] turned out to be 25.4%; with MCF7 it was 39.2%; in data set [3] it was 25.6%; in the data set on DU-145, 51%. Besides, the solubility result in data set [4] is “Insoluble”.

Turning to `CC(C)(C)NC(=O)C1c2cccc(c2)-c2ccc(cc2)OCc2cn(nn2)CCOc2ccc(cc2)CC(=O)N1Cc1ccccc1` (stereo not given), the inhibition at 50 µM turned out to be 48.3% in the data set on PC-3 [1], 44.6% in the data set with MCF7, 37.8% in data set [3] and 25.5% in the data set on DU-145.

Consider `CC1=C[C@H]2O[C@@H]3C[C@H]4OC(=O)/C=C\C=C\[C@@H]5O[C@@H](O[C@H]5C)[C@H](O)/C(C)=C/C(=O)OC[C@@]2(CC1)[C@]4(C)[C@]31CO1`, for which, in the data set on Bel-7402, the concentration for half-maximal inhibition (IC50) is 0.35 µg/mL (≈ 0.662 µM).

As to `CCCCCCCCCCCCNC(=O)C1c2cccc(c2)-c2ccc(cc2)OCc2cn(nn2)CCOc2ccc(cc2)CC(=O)N1c1ccc(C(F)(F)F)cc1` (stereo not given), the inhibition at 50 µM worked out at 45.8% with PC-3 [1], 41.7% in the data set on MCF7, 33.6% in data set [3] and 19.7% with DU-145.

For the molecule `CCCCCCCCCCCCNC(=O)C1c2cccc(c2)-c2ccc(cc2)OCc2cn(nn2)CCOc2ccc(cc2)CC(=O)N1Cc1ccccc1` (stereo not given), the inhibition at 50 µM in the data set on PC-3 [1] was found to be 25.8%; in the data set with MCF7, 26.4%; in data set [3] it was 28.2%; in the data set on DU-145, 10.4%.

In the case of `O=C(NC1CCCCC1)C1c2cccc(c2)-c2ccc(cc2)OCc2cn(nn2)CCCOc2ccc(cc2)CC(=O)N1c1ccc(C(F)(F)F)cc1` (stereo not given), the inhibition at 50 µM stood at 35.5% with PC-3 [1], 60.9% in the data set with MCF7, 30.9% in data set [3] and 20.1% in the data set with DU-145.

On to `CC(C)c1ccc(N2C(=O)Cc3ccc(cc3)OCCCn3cc(nn3)COc3cccc(c3)C2C(=O)NC2CCCCC2)cc1` (stereo not given), for which, in the data set on PC-3 [2], the IC50 worked out at 9.7 µM.

On to `O=C(NC1CCCCC1)C1c2cccc(c2)-c2ccc(cc2)OCc2cn(nn2)CCOc2ccc(cc2)CC(=O)N1c1ccc(C(F)(F)F)cc1` (stereo not given), for which the inhibition at 50 µM with PC-3 [1] came out at 46.9%; with MCF7, 45.8%; in data set [3], 37.7%; with DU-145 it was 37.1%.

Regarding `O=C(NC1CCCCC1)C1c2cccc(c2)-c2ccc(cc2)OCc2cn(nn2)CCCCCOc2ccc(cc2)CC(=O)N1c1ccc(C(F)(F)F)cc1` (stereo not given), the inhibition at 50 µM was 46% in the data set on PC-3 [1], 53.3% in the data set on MCF7, 45.4% in data set [3] and 48.8% in the data set with DU-145.

Regarding `CCCCCCCCCCCCNC(=O)C1c2cccc(c2)-c2ccc(cc2)OCc2cn(nn2)CCCCCOc2ccc(cc2)CC(=O)N1c1ccc(C(F)(F)F)cc1` (stereo not given), the inhibition at 50 µM stood at 22% in the data set with PC-3 [1], 24.9% in the data set on MCF7 and 10.2% in data set [3]. Further, in the data set on DU-145, the inhibition entry was “inactive”.

`CC(C)c1ccc(N2C(=O)Cc3ccc(cc3)OCCCn3cc(nn3)COc3ccc(cc3)-c3cccc(c3)C2C(=O)NC2CCCCC2)cc1` (stereo not given): the inhibition at 50 µM in the data set with PC-3 [1] was 60.8%; with MCF7, 58.2%; in data set [3], 48%; in the data set with DU-145, 41.9%. Moreover, the IC50 in the data set with PC-3 [2] was 13.8 µM.

Consider `CCCCCCCCCCCCNC(=O)C1c2cccc(c2)-c2ccc(cc2)OCc2cn(nn2)CCCOc2ccc(cc2)CC(=O)N1c1ccc(C(F)(F)F)cc1` (stereo not given), for which the inhibition at 50 µM in the data set on PC-3 [1] was 15.3%; in the data set on MCF7 it was 45.6%; in data set [3], 20.4%; in the data set with DU-145, 9.8%.

With `O=C(NC1CCCCC1)C1c2cccc(c2)-c2ccc(cc2)OCc2cn(nn2)CCCCOc2ccc(cc2)CC(=O)N1c1ccc(C(F)(F)F)cc1` (stereo not given), the inhibition at 50 µM in the data set with PC-3 [1] amounted to 48.5%; in the data set on MCF7, 57.1%; in data set [3] it was 38.1%; in the data set on DU-145, 39%.

As for `O=C(NC1CCCCC1)C1c2cccc(c2)-c2ccc(cc2)OCc2cn(nn2)CCOc2ccc(cc2)CC(=O)N1Cc1ccccc1` (stereo not given), the inhibition at 50 µM in the data set with PC-3 [1] was 11.6%; in the data set on MCF7, 15.2%; in data set [3] it was 9.9%; in the data set with DU-145 it was 11%.

On to `CCCCCCCCCCCCNC(=O)C1c2cccc(c2)-c2ccc(cc2)OCc2cn(nn2)CCCOc2ccc(cc2)CC(=O)N1c1ccc(C(C)C)cc1` (stereo not given), for which the inhibition at 50 µM with PC-3 [1] is 30.1%; with MCF7, 31.8%; in data set [3], 9.9%; in the data set on DU-145 it was 21.2%. Also, the solubility result in data set [4] is recorded as “Insoluble”.

As for `COc1cc([C@@H]2c3cc4c(cc3[C@@H](O[C@@H]3O[C@@H]5CO[C@@H](C)O[C@H]5[C@H](O)[C@H]3O)[C@H]3COC(=O)[C@H]23)OCO4)cc(OC)c1O` [ETOPOSIDE], in the data set on PC-3 [2], the IC50 came to 31.5 µM.

Consider `CC(C)c1ccc(N2C(=O)Cc3ccc(cc3)OCCn3cc(nn3)COc3ccc(cc3)-c3cccc(c3)C2C(=O)NC2CCCCC2)cc1` (stereo not given), for which the inhibition at 50 µM came to 90.2% with PC-3 [1], 81.8% in the data set with MCF7, 37.5% in data set [3] and 93.8% with DU-145. For the same molecule, the half-maximal inhibitory concentration (IC50) with PC-3 [2] worked out at 4.6 µM.

For the molecule `CC(C)(C)NC(=O)C1c2cccc(c2)-c2ccc(cc2)OCc2cn(nn2)CCCOc2ccc(cc2)CC(=O)N1Cc1ccccc1` (stereo not given), the inhibition at 50 µM in the data set on PC-3 [1] amounted to 5.5%; in the data set on MCF7 it was 67.9%; in data set [3], 33.1%. Besides, the inhibition result in the data set on DU-145 was “inactive”.
